In the supplement of paper PMC10307832:

Legend:
Assay in all cases: relative viability (nuclei count vs DMSO), 5 days (fraction); higher = more cells survive
NCI-H647 = test system: NCI-H647
Summary of the method: (§1)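 Lung cancer cell lines in 1536-well plates were dosed by pin tool the day after seeding, either with one drug alone or with a fixed anchor-drug dose plus five library-drug doses (not always all listed) in √10 steps. After 5 days, cells were fixed and their nuclei stained in one step (final 0.05% Triton X-100, 1% formaldehyde, 1 ug/ml Hoechst), then counted on 4× images. Relative viability is the nuclei count in treated wells divided by that in vehicle wells. Values are medians of duplicate plates.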

Calu-6 = test system: Calu-6
Summary of the method: as §1

IA-LM = test system: IA-LM
Summary of the method: as §1

A549 = test system: A549
Summary of the method: as §1

NCI-H2009 = test system: NCI-H2009
Summary of the method: as §1

NCI-H1299 = test system: NCI-H1299
Summary of the method: as §1

EBC-1 = test system: EBC-1
Summary of the method: as §1

LOU-NH91 = test system: LOU-NH91
Summary of the method: as §1

NCI-H1703 = test system: NCI-H1703
Summary of the method: as §1

NCI-H2405 = test system: NCI-H2405
Summary of the method: as §1

SMILES: CCNC(=O)c1noc(-c2cc(C(C)C)c(O)cc2O)c1-c1ccc(CN2CCOCC2)cc1 [Luminespib] + C[C@@H](Oc1cc(-c2cnn(C3CCNCC3)c2)cnc1N)c1c(Cl)ccc(F)c1Cl [Crizotinib] (partner 1 µM)
- relative viability (NCI-H647; first compound 0.002 µM): 1.22
- relative viability (NCI-H647; first compound 0.006325 µM): 1.07
- relative viability (NCI-H647; first compound 0.02 µM): 1.15
- relative viability (NCI-H647; first compound 0.06325 µM): 0.0916
- relative viability (NCI-H647; first compound 0.2 µM): 0.0805
- relative viability (Calu-6; first compound 0.002 µM): 0.793
- relative viability (Calu-6; first compound 0.006325 µM): 0.88
- relative viability (Calu-6; first compound 0.02 µM): 1.01
- relative viability (Calu-6; first compound 0.06325 µM): 0.109
- relative viability (Calu-6; first compound 0.2 µM): 0.097
- relative viability (IA-LM; first compound 0.002 µM): 0.753
- relative viability (IA-LM; first compound 0.006325 µM): 0.848
- relative viability (IA-LM; first compound 0.02 µM): 1
- relative viability (IA-LM; first compound 0.06325 µM): 0.0538
- relative viability (IA-LM; first compound 0.2 µM): 0.04
- relative viability (A549; first compound 0.002 µM): 0.861
- relative viability (A549; first compound 0.006325 µM): 0.593
- relative viability (A549; first compound 0.02 µM): 0.51
- relative viability (A549; first compound 0.06325 µM): 0.0411
- relative viability (A549; first compound 0.2 µM): 0.0426
- relative viability (NCI-H2009; first compound 0.002 µM): 1.14
- relative viability (NCI-H2009; first compound 0.006325 µM): 0.918
- relative viability (NCI-H2009; first compound 0.02 µM): 1.04
- relative viability (NCI-H2009; first compound 0.06325 µM): 0.0632
- relative viability (NCI-H2009; first compound 0.2 µM): 0.0663
- relative viability (NCI-H1299; first compound 0.002 µM): 0.953
- relative viability (NCI-H1299; first compound 0.006325 µM): 0.953
- relative viability (NCI-H1299; first compound 0.02 µM): 1.01
- relative viability (NCI-H1299; first compound 0.06325 µM): 0.915
- relative viability (NCI-H1299; first compound 0.2 µM): 0.229
- relative viability (EBC-1; first compound 0.002 µM): 0.196
- relative viability (EBC-1; first compound 0.006325 µM): 0.195
- relative viability (EBC-1; first compound 0.02 µM): 0.179
- relative viability (EBC-1; first compound 0.06325 µM): 0.173
- relative viability (EBC-1; first compound 0.2 µM): 0.165
- relative viability (LOU-NH91; first compound 0.002 µM): 0.765
- relative viability (LOU-NH91; first compound 0.006325 µM): 0.726
- relative viability (LOU-NH91; first compound 0.02 µM): 0.55
- relative viability (LOU-NH91; first compound 0.06325 µM): 0.328
- relative viability (LOU-NH91; first compound 0.2 µM): 0.351
- relative viability (NCI-H1703; first compound 0.002 µM): 0.806
- relative viability (NCI-H1703; first compound 0.006325 µM): 0.653
- relative viability (NCI-H1703; first compound 0.02 µM): 0.367
- relative viability (NCI-H1703; first compound 0.06325 µM): 0.119
- relative viability (NCI-H1703; first compound 0.2 µM): 0.0858
- relative viability (NCI-H2405; first compound 0.002 µM): 0.829
- relative viability (NCI-H2405; first compound 0.006325 µM): 0.644
- relative viability (NCI-H2405; first compound 0.02 µM): 0.705
- relative viability (NCI-H2405; first compound 0.06325 µM): 0.615
- relative viability (NCI-H2405; first compound 0.2 µM): 0.257

SMILES: Cc1cn(-c2cc(NC(=O)c3ccc(C)c(Nc4nccc(-c5cccnc5)n4)c3)cc(C(F)(F)F)c2)cn1 [Nilotinib] + CC1(C)CCC(c2ccc(Cl)cc2)=C(CN2CCN(c3ccc(C(=O)NS(=O)(=O)c4ccc(N[C@H](CCN5CCOCC5)CSc5ccccc5)c(S(=O)(=O)C(F)(F)F)c4)cc3)CC2)C1 [Navitoclax] (partner 0.5 µM)
- relative viability (NCI-H647; first compound 0.001 µM): 0.952
- relative viability (NCI-H647; first compound 0.003162 µM): 1.42
- relative viability (NCI-H647; first compound 0.01 µM): 1.26
- relative viability (NCI-H647; first compound 0.03162 µM): 0.997
- relative viability (NCI-H647; first compound 0.1 µM): 0.974
- relative viability (Calu-6; first compound 0.001 µM): 0.781
- relative viability (Calu-6; first compound 0.003162 µM): 0.845
- relative viability (Calu-6; first compound 0.01 µM): 1.05
- relative viability (Calu-6; first compound 0.03162 µM): 0.641
- relative viability (Calu-6; first compound 0.1 µM): 0.929
- relative viability (IA-LM; first compound 0.001 µM): 0.499
- relative viability (IA-LM; first compound 0.003162 µM): 0.603
- relative viability (IA-LM; first compound 0.01 µM): 0.795
- relative viability (IA-LM; first compound 0.03162 µM): 0.747
- relative viability (IA-LM; first compound 0.1 µM): 0.889
- relative viability (A549; first compound 0.001 µM): 1.2
- relative viability (A549; first compound 0.003162 µM): 1.47
- relative viability (A549; first compound 0.01 µM): 1.14
- relative viability (A549; first compound 0.03162 µM): 0.789
- relative viability (NCI-H2009; first compound 0.001 µM): 1.09
- relative viability (NCI-H2009; first compound 0.003162 µM): 1.19
- relative viability (NCI-H2009; first compound 0.01 µM): 1.21
- relative viability (NCI-H2009; first compound 0.03162 µM): 1.19
- relative viability (NCI-H2009; first compound 0.1 µM): 1.23
- relative viability (NCI-H1299; first compound 0.003162 µM): 1.08
- relative viability (NCI-H1299; first compound 0.01 µM): 1.13
- relative viability (NCI-H1299; first compound 0.03162 µM): 1.07
- relative viability (NCI-H1299; first compound 0.1 µM): 1.03
- relative viability (EBC-1; first compound 0.001 µM): 0.351
- relative viability (EBC-1; first compound 0.003162 µM): 0.373
- relative viability (EBC-1; first compound 0.01 µM): 0.332
- relative viability (EBC-1; first compound 0.03162 µM): 0.289
- relative viability (EBC-1; first compound 0.1 µM): 0.186
- relative viability (LOU-NH91; first compound 0.001 µM): 0.644
- relative viability (LOU-NH91; first compound 0.003162 µM): 0.685
- relative viability (LOU-NH91; first compound 0.01 µM): 0.846
- relative viability (LOU-NH91; first compound 0.03162 µM): 0.608
- relative viability (LOU-NH91; first compound 0.1 µM): 0.658
- relative viability (NCI-H1703; first compound 0.001 µM): 1.01
- relative viability (NCI-H1703; first compound 0.003162 µM): 0.482
- relative viability (NCI-H1703; first compound 0.01 µM): 0.325
- relative viability (NCI-H1703; first compound 0.03162 µM): 0.229
- relative viability (NCI-H2405; first compound 0.001 µM): 0.733
- relative viability (NCI-H2405; first compound 0.003162 µM): 0.761
- relative viability (NCI-H2405; first compound 0.01 µM): 0.764
- relative viability (NCI-H2405; first compound 0.03162 µM): 0.596
- relative viability (NCI-H2405; first compound 0.1 µM): 0.439
